According to US20120195938A1, “FORMULATIONS AND METHODS FOR RECOVERY FROM DENTAL SURGERY” (priority 2007, published 2012):

Legend:
[1] = system: BGLAP (osteocalcin); assay: RT-PCR gene expression in hMSCs: osteocalcin; details: hMSC, growth media, melatonin 3 × 10^−7 molar, dexamethasone 1 × 10^−7 molar
[2] = system: Runx2; assay: RT-PCR gene expression in hMSCs: Runx2; assay type: cell-based, Human; details: hMSC, growth media, melatonin 3 × 10^−7 molar, dexamethasone 1 × 10^−7 molar
Experimental: (§1) Human mesenchymal stem cells (hMSCs) were purchased through LONZA BIOSCIENCES. These cells were seeded at a density of approximately 7500 cells/cm^2 upon receipt. Since hMSCs spontaneously differentiate into various cell types after 8 to 9 passages, cells passaged 3 to 4 times were used for each of the examples disclosed herein. Supplemented DMEM media was refreshed every third day during culture.
(§2) Cultures of hMSCs were passaged in growth medium until a sufficient number of flasks for differentiation studies were obtained. Growth medium was removed and replaced with a variety of experimental solutions as described more fully hereinbelow. For qualitative alkaline phosphatase assays described below, the cells were seeded on collagen coated cover slips (BIOCOAT®) at 2000 cells/cm^2. A volume of 3 ml of media was placed into the wells for 5 and 15 days according to the procedures below. For the reverse-transcriptase polymerase chain reaction studies described below, the cells were cultured in their respective media for 5, 10, or 20 days.
(§3) Cells were plated and grown using the general techniques described in Examples 1 and 2. The expression of numerous genes was assessed for cells at Days 5, 10, and 20. Cells were grown in the media as detailed in Tables 1 and 2 below. The expression of the indicated genes was assessed and reported as x-fold increases over the level of normalized gene expression to glyceraldehyde-3-phosphate dehydrogenase (GAPDH) in cells cultured in grown medium (Table 1).
The reaction protocol was completed in a BIO-RAD CHROMO4 Real Time Detection System using the iScript One-Step RT-PCR Kit (BIO-RAD, Hercules, Calif.). Each reaction mixture contained […] of RNA. The 50 μL reaction mixture was placed in the thermal cycler and incubated at 55° C. for 10 minutes, 5 minutes at 95° C. for cDNA synthesis and reverse transcriptase inactivation. The PCR cycling was completed after 45 cycles; 10 seconds at 95° C., 30 seconds at 57° C. A melt curve analysis was completed; 1 minute at 95° C., 1 minute at 55° C. and 10 seconds at 55° C. for 80 cycles, increasing 0.5° C. each cycle. The data was collected and analyzed using the MC OPTICON software.
For the second PCR run, the gene Runx2 was included instead of BSP. Runx2 is a transcription factor required for all remaining steps of osteoblastic differentiation to occur. Accordingly, it is a specific early marker of osteoblastic differentiation.

[3] = system: glycoprotein-IIβ (GPIIβ or GPIIB); assay: RT-PCR gene expression in hMSCs: GPIIB; assay type: cell-based, Human; details: hMSC, growth media, melatonin 3 × 10^−7 molar, dexamethasone 1 × 10^−7 molar
Experimental: as §1, §2, §3
The genes of interest were selected based upon their appearance in platelets and mesenchymal stem cells differentiating into osteoblasts. Glyceraldehyde-3 phosphate dehydrogenase (GAPDH) is a well characterized housekeeper gene for differentiating hMSCs. The primers used were: forward: 5′ […] (SEQ ID No. 1), reverse: […] (SEQ ID No. 2). The gene for bone sialoprotein (BSP) was chosen because it is expressed during the differentiation of hMSCs, prior to the mineralization phase, but represents a mature functioning osteoblast. The primers were forward: 5′ […] (SEQ ID No. 3), reverse: […] (SEQ ID No. 4). The gene BGLAP (osteocalcin) was chosen because it is definitive marker for functioning osteoblasts at 21 days. The primers were: forward: 5′ […] (SEQ ID No. 5), reverse: […] (SEQ ID No. 6). The gene for glycoprotein-IIβ (GPIIβ or GPIIB) was chosen because it is expressed in developing megakaryocytes and found in platelets. The primers were: forward: […] (SEQ ID No. 7), reverse: […] (SEQ ID No. 8).
The reaction protocol was completed in a BIO-RAD CHROMO4 Real Time Detection System using the iScript One-Step RT-PCR Kit (BIO-RAD, Hercules, Calif.). Each reaction mixture contained 100 nM of RNA. […] The data was collected and analyzed using the MC OPTICON software.

[4] = system: alkaline phosphatase activity in hMSC cultures; assay: Quantitative alkaline phosphatase assay in hMSC cultures; assay type: cell-based, Human; details: differentiation medium, dexamethasone 1×10^−7 M, melatonin 3×10^−7 M, 3.5% (v/v) PRP
Experimental: Human mesenchymal stem cells (hMSCs) were purchased through LONZA BIOSCIENCES. These cells were seeded at a density of approximately 7500 cells/cm^2 upon receipt. Since hMSCs spontaneously differentiate into various cell types after 8 to 9 passages, cells passaged 3 to 4 times were used for each of the examples disclosed herein. Supplemented DMEM media was refreshed every third day during culture. Cultures of hMSCs were passaged in growth medium until a sufficient number of flasks for differentiation studies were obtained. Growth medium was removed and replaced with a variety of experimental solutions as described more fully hereinbelow. For qualitative alkaline phosphatase assays described below, the cells were seeded on collagen coated cover slips (BIOCOAT®) at 2000 cells/cm^2. A volume of 3 ml of media was placed into the wells for 5 and 15 days according to the procedures below. […] At 5 days and 15 days, cultures in each condition were quantitatively assessed for alkaline phosphatase activity (μg of alkaline phosphatase per mL of solution). Quantitative alkaline phosphatase assays (ANASPEC, California) were completed according to manufacturers' instructions. […] The plate was incubated at room temperature for 30 minutes and the developing color was measured immediately using a BIO-TEK KINETIC MICROPLATE READER Model E[…] […]

[5] = system: human periodontal ligament cells; details: media supplemented; Hayami et al., Bone (2007); cited from earlier work

Row | SMILES | Osteocalcin mRNA expression, x-fold increase compared to untreated growth control ([1]; Day 5, n = 3) | Osteocalcin mRNA expression, x-fold increase compared to untreated growth control ([1]; Day 10, n = 3) | Osteocalcin mRNA expression, x-fold increase compared to untreated growth control ([1]; Day 20, n = 3) | Runx2 mRNA expression, x-fold increase compared to untreated growth control ([2]; Day 5, n = 3) | Runx2 mRNA expression, x-fold increase compared to untreated growth control ([2]; Day 10, n = 3) | Runx2 mRNA expression, x-fold increase compared to untreated growth control ([2]; Day 20, n = 3) | GPIIB mRNA expression, x-fold increase compared to untreated growth control ([3]; Day 10, n = 3) | GPIIB mRNA expression, x-fold increase compared to untreated growth control ([3]; Day 20, n = 3) | Osteocalcin mRNA expression, x-fold increase compared to untreated growth control ([1]; Day 5, n = 3, listed as melatonin) | alkaline phosphatase activity ([4]; Day 5, FIG. 1B) | alkaline phosphatase activity ([4]; Day 15, FIG. 1B) | osteoblast-specific cell markers in culture [5]
1 | C[C@@H]1C[C@H]2[C@@H]3CCC4=CC(=O)C=C[C@]4(C)[C@@]3(F)[C@@H](O)C[C@]2(C)[C@@]1(O)C(=O)CO [Dexamethasone, dexamethasone] | 70.22 x-fold | 142.21 x-fold | 998.82 x-fold | 138.04 x-fold | 4.16 x-fold | 15.29 x-fold | 11.59 x-fold | 4993.43 x-fold |  |  |  | 
2 | COc1ccc2[nH]cc(CCNC(C)=O)c2c1 [Melatonin, melatonin] | 260.38 x-fold | 1269.3 x-fold | 1295.79 x-fold | 269.75 x-fold | 14.39 x-fold | 129.83 x-fold | 968.86 x-fold | 2432.97 x-fold | high levels | showed an effect | elevated alkaline phosphatase activity | 
3 | C[C@@H]1C[C@H]2[C@@H]3CCC4=CC(=O)C=C[C@]4(C)[C@@]3(F)[C@@H](O)C[C@]2(C)[C@@]1(O)C(=O)COP(=O)(O)O [dexamethasone sodium phosphate solution, Dexamethasone sodium phosphate] |  |  |  |  |  |  |  |  |  |  |  | increased osteoblast-specific cell markers
